Measurements reported in patent publication US8329739B2, “Phenylimidazole compounds” (Otsuka Pharmaceutical Factory, Inc., priority 2009, dated 2012).

Columns and labels:
LPL (lipoprotein lipase) = biological target: T1, LPL (lipoprotein lipase) (Mus musculus, UniProt P11152); experiment: Confirmation test of LPL activation effect in mouse skeletal muscle cells (C2C12 cells); type: cell-based; settings: 8 hours exposure, vs control group
T1 construct: endogenous in cells; host or cells: C2C12 cells, differentiated
T1 sequence (P11152 28-474): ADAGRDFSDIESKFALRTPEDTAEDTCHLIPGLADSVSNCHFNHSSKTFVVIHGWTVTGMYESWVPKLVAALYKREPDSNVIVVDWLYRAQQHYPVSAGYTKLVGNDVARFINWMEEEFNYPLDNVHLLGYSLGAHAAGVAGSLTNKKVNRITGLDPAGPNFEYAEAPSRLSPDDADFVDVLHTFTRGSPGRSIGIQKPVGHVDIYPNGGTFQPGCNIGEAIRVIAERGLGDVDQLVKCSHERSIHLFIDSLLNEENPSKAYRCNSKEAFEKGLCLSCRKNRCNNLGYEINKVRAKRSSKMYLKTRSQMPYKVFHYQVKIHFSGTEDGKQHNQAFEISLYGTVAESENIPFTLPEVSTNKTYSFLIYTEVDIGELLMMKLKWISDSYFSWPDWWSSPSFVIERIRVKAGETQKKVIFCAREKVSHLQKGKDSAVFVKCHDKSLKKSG
Method: Human skeletal muscle cells (human skeletal muscle myoblasts) or mouse skeletal muscle cells (C2C12 cells) that were seeded onto plates, cultured, and differentiated were exposed to a 0.3% dimethyl sulfoxide-containing culture medium in which the compound of the present invention was dissolved (concentration: 10 μM or 30 μM). The medium was removed 8 hours after exposure, 10 mM of Tris-HCl buffer (150 mM NaCl, 10 μ/mL; containing heparin sodium) was added to the cells, and the cells were incubated at 37° C. in the presence of 5% CO2 for 10 minutes. LPL activity in the supernatant was measured using an LPL activity assay kit (made by Roar Biomedical Inc.). LPL activity was evaluated based on the increase in fluorescence intensity 10 to 70 minutes after mixing the supernatant with the LPL substrate. The mean value of the increase in fluorescence intensity of the cells exposed to a 0.3% dimethyl sulfoxide-containing culture medium […] was used as mean value of the control group. Note that the compounds of Examples 18, 19, 32, 45 and 57 were tested using human skeletal muscle cells, and other compounds were tested using mouse skeletal muscle cells. The rate of increase (%) was calculated from the measured values of LPL activity in the control group and the experimental group, according to the following formula. Rate of increase in LPL activity (%)=[(mean value of the experimental group)−(mean value of the control group)]/(mean value of the control group)×100

SMILES	melting point [°C]	Rate of increase in LPL activity (LPL (lipoprotein lipase); amount of addition 10 μM) [%]	Rate of increase in LPL activity (LPL (lipoprotein lipase); amount of addition 30 μM) [%]
COc1cc(-c2c[nH]c(-c3ccc(F)cc3)n2)ccc1OCc1ccc(Cl)cc1.Cl [Example 48]	243 to 245	18	96
COc1cc(-c2nc(-c3ccc(F)cc3)[nH]c2C)ccc1OCc1ccccc1 [Example 49]	214 to 218	47	147
COc1cc(-c2c[nH]c(-c3ccc(F)cc3)n2)ccc1OCc1ccccc1C#N [Example 50]	204 to 206	20	70
COc1cc(-c2c[nH]c(-c3cccc(C(F)(F)F)c3)n2)ccc1OCc1ccc(Br)cc1F [Example 51]	173 to 174	16	115
COc1cc(OCc2ccccc2)ccc1-c1c[nH]c(-c2cccc(F)c2)n1.Cl [Example 54]	231 to 235	18	87
COc1cc(OCc2ccc(Br)cc2F)ccc1-c1c[nH]c(-c2cccc(C(F)(F)F)c2)n1.Cl [Example 58]	> 250	45	150
COc1cc(-c2c[nH]c(-c3ccc(F)cc3)n2)ccc1OCc1cccc(C#N)c1.Cl [Example 61]	242 to 244	53	92
COc1cc(OCc2ccc(Br)cc2F)ccc1-c1c[nH]c(-c2ccsc2)n1.Cl [Example 68]	247 to 249	10	289
COc1cc(-c2c[nH]c(-c3ccsc3)n2)ccc1OCc1ccc(Br)cc1F.Cl [Example 69]	251 to 252	52	142
COc1cc(-c2c[nH]c(-c3ccsc3)n2)ccc1OCc1ccc(Cl)cc1 [Example 71]	197 to 201	42	114
COc1cc(-c2c[nH]c(-c3ccsc3)n2)ccc1OCc1cccc(C#N)c1.Cl [Example 72]	224 to 227	70	123
COc1cc(-c2c[nH]c(-c3ccsc3)n2)ccc1OCc1ccccc1C#N.Cl [Example 73]	236 to 237	55	108
COc1cc(-c2c[nH]c(-c3cccc(C(F)(F)F)c3)n2)ccc1OCc1ccc(C#N)cc1.Cl [Example 75]	231 to 232	43	89
COc1cc(-c2c[nH]c(-c3cccc(F)c3)n2)ccc1OCc1ccc(Cl)cc1.Cl [Example 79]	235 to 237	16	64
COc1cc(OCc2ccc(Br)cc2F)ccc1-c1c[nH]c(-c2ccccc2C(F)(F)F)n1.Cl [Example 81]	224 to 228	32	89
COc1cc(OCc2ccc(Cl)cc2)ccc1-c1c[nH]c(-c2ccccc2C(F)(F)F)n1 [Example 83]	158 to 161	29	100
COc1ccc(-c2nc(-c3ccc(OCc4ccc(Br)cc4F)cc3OC)c[nH]2)cc1.Cl [Example 86]	> 250	40	375
COc1cc(OCc2ccc(Br)cc2F)ccc1-c1c[nH]c(-c2cccc(Cl)c2)n1.Cl [Example 88]	231 to 236	12	98
COc1cc(OCc2ccc(Br)cc2F)ccc1-c1c[nH]c(-c2ccc(C(C)(C)C)cc2)n1 [Example 90]	177 to 180	18	130
COc1cc(OCc2ccc(Br)cc2F)ccc1-c1c[nH]c(-c2cc(Cl)cc(Cl)c2)n1 [Example 91]	260 to 265	28	95
COC(=O)c1ccc(-c2nc(-c3ccc(OCc4ccc(Br)cc4F)cc3OC)c[nH]2)cc1 [Example 92]	158 to 159	42	123
COc1ccc(-c2nc(-c3ccc(OCc4ccc(Br)cc4F)cc3OC)c[nH]2)cc1OC.Cl [Example 93]	255 to 256	36	174
COc1cc(OCc2ccc(Br)cc2F)ccc1-c1c[nH]c(-c2ccc(C(=O)O)cc2)n1.Cl [Example 94]	> 250	9	15
COc1cccc(-c2nc(-c3ccc(OCc4ccc(Br)cc4F)cc3OC)c[nH]2)c1.Cl [Example 99]	255 to 258	14	90

The remaining lines, values ahead:

melting point [°C]	Rate of increase in LPL activity (LPL (lipoprotein lipase); amount of addition 10 μM) [%]	Rate of increase in LPL activity (LPL (lipoprotein lipase); amount of addition 30 μM) [%]	SMILES
231 to 233	49	94	COc1cc(-c2c[nH]c(-c3ccc(C(F)(F)F)cc3)n2)ccc1OCc1ccc(C#N)cc1 [Example 55]
224 to 226	38	62	COc1cc(-c2c[nH]c(-c3ccc(F)cc3)n2)ccc1OCc1ccc(C#N)cc1 [Example 56]
205 to 209	22	73	COc1cc(-c2c[nH]c(-c3cccc(F)c3)n2)ccc1OCc1ccc(C#N)cc1 [Example 59]
183 to 186	24	46	COc1cc(OCc2ccc(C#N)cc2)ccc1-c1c[nH]c(-c2ccsc2)n1 [Example 65]
176 to 180	24	32	COc1cc(-c2c[nH]c(-c3ccsc3)n2)ccc1OCc1ccc(C#N)cc1 [Example 66]
186 to 187	115	263	COc1cc(OCc2ccc(C#N)cc2)ccc1-c1c[nH]c(-c2ccc(Cl)cc2)n1 [Example 76]
231 to 232	54	133	COc1cc(-c2c[nH]c(-c3ccc(Cl)cc3)n2)ccc1OCc1ccc(C#N)cc1 [Example 77]
231 to 232	14	60	COc1cc(OCc2ccc(Cl)cc2)ccc1-c1c[nH]c(-c2cccc(F)c2)n1.Cl [Example 78]
191 to 195	21	302	COc1cc(OCc2ccc(Br)cc2F)ccc1-c1c[nH]c(-c2ccc(Cl)cc2)n1 [Example 80]
181 to 184	27	86	COc1cc(OCc2ccc(Cl)cc2)ccc1-c1c[nH]c(-c2ccc(Cl)cc2)n1 [Example 82]
195 to 198	10	99	COc1cc(OCc2ccc(C#N)cc2)ccc1-c1c[nH]c(-c2ccc(C)cc2)n1 [Example 85]
183 to 186	23	144	COc1ccc(-c2nc(-c3ccc(OCc4ccc(C#N)cc4)cc3OC)c[nH]2)cc1.Cl [Example 87]
173 to 176	27	96	COc1cc(OCc2ccc(C#N)cc2)ccc1-c1c[nH]c(-c2ccc(F)c(F)c2)n1 [Example 96]
154 to 157	27	63	COc1cc(OCc2ccc(C#N)cc2)ccc1-c1c[nH]c(-c2cccc(Cl)c2)n1 [Example 97]
139 to 142	12	43	COc1cccc(-c2nc(-c3ccc(OCc4ccc(C#N)cc4)cc3OC)c[nH]2)c1 [Example 100]
